Patent US5721207A, “Method for treatment of pain” (Innapharma, Inc., priority 1995, dated 1998)
Where two headings read alike, the source gives them in different places.

Tests used:
rat [1] = system: rat
Protocol: Intrathecal catheters were surgically implanted in the rats after application of anesthetic (Nembutal, 30 mg/kg, intraperitoneal) 5-7 days prior to the test procedure. The 5-7 day period prior to testing allowed for full recovery from the surgical procedures. […] Each catheter was anchored to the skull with cyanoacrylate adhesive, and the skull was closed with wound clips. The free end of each catheter was heat annealed; when compositions were to be injected via the intrathecal route each composition was introduced therein using a Hamilton needle inserted into the sealed catheter.
Pain sensitivity was assessed using a standard analgesiometric hot plate test (Woolfe and MacDonald (1944) J. Pharmacol. Exp. Ther. 80:300). The hot plate response was determined by placing a rat on a 55° C. copper hot plate enclosed in a plexiglass cylinder.
Because of the technical demands of these experiments, no more than 8-9 rats were tested on a given day. Sufficient animals were studied to obtain 10-11 evaluable rats per test condition. On the study day, animals were tested for baseline hot plate responses, and then received bolus injections of test analgesic or physiological saline (control). Hot plate responses were assessed again at 15 min, 30 min, 1 hr, 3 hr, 6 hr and 24 hr after intrathecal injection of test compound or vehicle control.
Ninety-six (96) rats, ranging in weight from 320 g to 420 g, were used in this study. Catheters were implanted and recovery was allowed for as described hereinabove. […] Drug or saline vehicle doses were administered using Hamilton needles inserted into the catheters, with a dose volumes of 37.5 μL/kg followed by a 10 μL saline catheter wash-out. Baseline (pre-drug) and responses at 15 min, 30 min, 1 hr, 3 hr, 6 hr and 24 hr after drug or vehicle injection were determined.

rat [2] = assay: Rat hot plate test, single intravenous elcatonin (Example 10); assay type: in vivo
Protocol: A total of 24 rats, ranging in weight from 320 to 420 g, was used in this study. Four to eight rats were used for each dose level. […] The doses used were 10, 30, 100 and 300 IU/kg (1.61, 4.83, 16.1 and 48.3 μg/kg, respectively).

[3] = intrathecal, 30 min post-injection

[Des-Cys^1,ASU^7 ]-Calcitonin, Eel [Elcatonin]
Hot Plate Latency (Mean ± SEM) (rat [1]; 3.6 IU/kg (0.58 μg/kg, 0.18 nmol/kg) intrathecal single, 24 hr): 15.79 ± 2.40 s | Hot Plate Latency (Mean ± SEM) (rat [1]; 4.4 IU/kg ([…], 0.22 nmol/kg) intrathecal single, 0 hr (baseline)): 13.68 ± 1.10 s | Hot Plate Latency (Mean ± SEM) (rat [1]; 4.4 IU/kg ([…], 0.22 nmol/kg) intrathecal single, 0.25 hr): 21.89 ± 3.12 s | Hot Plate Latency (Mean ± SEM) (rat [1]; 4.4 IU/kg ([…], 0.22 nmol/kg) intrathecal single, 0.5 hr): 26.03 ± 3.36 s | Hot Plate Latency (Mean ± SEM) (rat [1]; 4.4 IU/kg ([…], 0.22 nmol/kg) intrathecal single, 1 hr): 26.20 ± 2.37 s | Hot Plate Latency (Mean ± SEM) (rat [1]; 4.4 IU/kg ([…], 0.22 nmol/kg) intrathecal single, 3 hr): 21.11 ± 2.18 s | Hot Plate Latency (Mean ± SEM) (rat [1]; 4.4 IU/kg ([…], 0.22 nmol/kg) intrathecal single, 6 hr): 20.02 s | Hot Plate Latency (Mean ± SEM) (rat [1]; 4.4 IU/kg ([…], 0.22 nmol/kg) intrathecal single, 24 hr): 11.78 ± 1.75 s | Hot Plate Latency (Mean ± SEM) (rat [1]; 5.2 IU/kg (0.84 μg/kg, 0.26 nmol/kg) intrathecal single, 0 hr (baseline)): 13.41 ± 0.92 s | Hot Plate Latency (Mean ± SEM) (rat [1]; 5.2 IU/kg (0.84 μg/kg, 0.26 nmol/kg) intrathecal single, 0.25 hr): 27.89 ± 3.10 s | Hot Plate Latency (Mean ± SEM) (rat [1]; 5.2 IU/kg (0.84 μg/kg, 0.26 nmol/kg) intrathecal single, 0.5 hr): 31.55 ± 4.17 s | Hot Plate Latency (Mean ± SEM) (rat [1]; 5.2 IU/kg (0.84 μg/kg, 0.26 nmol/kg) intrathecal single, 1 hr): 25.82 ± 3.79 s | Hot Plate Latency (Mean ± SEM) (rat [1]; 5.2 IU/kg (0.84 μg/kg, 0.26 nmol/kg) intrathecal single, 3 hr): 28.81 ± 3.41 s | Hot Plate Latency (Mean ± SEM) (rat [1]; 5.2 IU/kg (0.84 μg/kg, 0.26 nmol/kg) intrathecal single, 6 hr): 22.97 s | Hot Plate Latency (Mean ± SEM) (rat [1]; 5.2 IU/kg (0.84 μg/kg, 0.26 nmol/kg) intrathecal single, 24 hr): 12.36 ± 1.69 s | Hot Plate Latency (Mean ± SEM) (rat [1]; 6.0 IU/kg (0.97 μg/kg, 0.30 nmol/kg) intrathecal single, 0 hr (baseline)): 11.38 ± 0.89 s | Hot Plate Latency (Mean ± SEM) (rat [1]; 6.0 IU/kg (0.97 μg/kg, 0.30 nmol/kg) intrathecal single, 0.25 hr): 25.22 ± 4.13 s | Hot Plate Latency (Mean ± SEM) (rat [1]; 6.0 IU/kg (0.97 μg/kg, 0.30 nmol/kg) intrathecal single, 0.5 hr): 28.91 ± 3.40 s | Hot Plate Latency (Mean ± SEM) (rat [1]; 6.0 IU/kg (0.97 μg/kg, 0.30 nmol/kg) intrathecal single, 1 hr): 24.48 ± 3.35 s | Hot Plate Latency (Mean ± SEM) (rat [1]; 6.0 IU/kg (0.97 μg/kg, 0.30 nmol/kg) intrathecal single, 3 hr): 26.60 ± 3.87 s | Hot Plate Latency (Mean ± SEM) (rat [1]; 6.0 IU/kg (0.97 μg/kg, 0.30 nmol/kg) intrathecal single, 6 hr): 24.69 s | Hot Plate Latency (Mean ± SEM) (rat [1]; 6.0 IU/kg (0.97 μg/kg, 0.30 nmol/kg) intrathecal single, 24 hr): 11.17 ± 1.80 s | hot plate analgesia compared with morphine sulfate (49.42-164.73 nmol/kg) (rat [1]; 6 hours post-injection, all tested doses of elcatonin (0.12-0.30 nmol/kg)): more potent hot plate analgesia than all tested doses of morphine sulfate | duration of analgesia, elcatonin compared with morphine (rat [1]; intrathecal): generally longer duration of analgesic activity than morphine | molar concentration producing potent analgesia, lower than morphine sulfate by (rat [1]; intrathecal): approximately 1000 fold | dose approximately equivalent to 164.73 nmol/kg morphine sulfate (125.0 μg/kg) (rat [1]; [3]): ~0.18 nmol/kg | dose producing a hot plate latency similar to 98.84 nmol/kg morphine sulfate (75.0 μg/kg) (rat [1]; [3]): ~0.12 nmol/kg | onset of antinociception/analgesia post-injection (rat [1]; intrathecal, all tested doses): ≤ 15 min | time of peak antinociception (rat [1]; intrathecal, all tested doses (2.4-6.0 IU/kg)): 30 to 60 min | analgesia compared to intrathecal morphine (rat [1]; rat hot plate, intrathecal): dramatically improved analgesia | Hot Plate Latency (Mean ± SEM) (rat [2]; 10.0 IU/kg (1.61 μg/kg) intravenous single, 0 hr (baseline)): 12.03 ± 1.02 s | Hot Plate Latency (Mean ± SEM) (rat [2]; 10.0 IU/kg (1.61 μg/kg) intravenous single, 0.25 hr): 11.95 ± 1.40 s | Hot Plate Latency (Mean ± SEM) (rat [2]; 10.0 IU/kg (1.61 μg/kg) intravenous single, 0.5 hr): 15.64 ± 2.39 s | Hot Plate Latency (Mean ± SEM) (rat [2]; 10.0 IU/kg (1.61 μg/kg) intravenous single, 1 hr): 14.95 ± 2.92 s | Hot Plate Latency (Mean ± SEM) (rat [2]; 10.0 IU/kg (1.61 μg/kg) intravenous single, 3 hr): 14.11 ± 0.94 s | Hot Plate Latency (Mean ± SEM) (rat [2]; 10.0 IU/kg (1.61 μg/kg) intravenous single, 6 hr): 10.45 ± 1.03 s | Hot Plate Latency (Mean ± SEM) (rat [2]; 10.0 IU/kg (1.61 μg/kg) intravenous single, 24 hr): 8.86 ± 1.23 s | Hot Plate Latency (Mean ± SEM) (rat [2]; 30.0 IU/kg (4.83 μg/kg) intravenous single, 0 hr (baseline)): 10.71 ± 1.02 s | Hot Plate Latency (Mean ± SEM) (rat [2]; 30.0 IU/kg (4.83 μg/kg) intravenous single, 0.25 hr): 10.04 ± 0.96 s | Hot Plate Latency (Mean ± SEM) (rat [2]; 30.0 IU/kg (4.83 μg/kg) intravenous single, 0.5 hr): 12.18 ± 1.22 s | Hot Plate Latency (Mean ± SEM) (rat [2]; 30.0 IU/kg (4.83 μg/kg) intravenous single, 1 hr): 14.14 ± 1.14 s | Hot Plate Latency (Mean ± SEM) (rat [2]; 30.0 IU/kg (4.83 μg/kg) intravenous single, 3 hr): 14.26 ± 1.39 s | Hot Plate Latency (Mean ± SEM) (rat [2]; 30.0 IU/kg (4.83 μg/kg) intravenous single, 6 hr): 15.12 ± 2.20 s | Hot Plate Latency (Mean ± SEM) (rat [2]; 30.0 IU/kg (4.83 μg/kg) intravenous single, 24 hr): 10.76 ± 1.25 s | Hot Plate Latency (Mean ± SEM) (rat [2]; 100.0 IU/kg (16.1 μg/kg) intravenous single, 0 hr (baseline)): 13.53 ± 1.63 s | Hot Plate Latency (Mean ± SEM) (rat [2]; 100.0 IU/kg (16.1 μg/kg) intravenous single, 0.25 hr): 11.05 ± 1.99 s | Hot Plate Latency (Mean ± SEM) (rat [2]; 100.0 IU/kg (16.1 μg/kg) intravenous single, 0.5 hr): 9.63 ± 1.21 s | Hot Plate Latency (Mean ± SEM) (rat [2]; 100.0 IU/kg (16.1 μg/kg) intravenous single, 1 hr): 11.20 ± 1.95 s | Hot Plate Latency (Mean ± SEM) (rat [2]; 100.0 IU/kg (16.1 μg/kg) intravenous single, 3 hr): 14.76 ± 1.19 s | Hot Plate Latency (Mean ± SEM) (rat [2]; 100.0 IU/kg (16.1 μg/kg) intravenous single, 6 hr): 14.00 ± 1.83 s | Hot Plate Latency (Mean ± SEM) (rat [2]; 100.0 IU/kg (16.1 μg/kg) intravenous single, 24 hr): 14.30 ± 1.33 s | Hot Plate Latency (Mean ± SEM) (rat [2]; 300.0 IU/kg (48.3 μg/kg) intravenous single, 0 hr (baseline)): 11.22 ± 0.38 s | Hot Plate Latency (Mean ± SEM) (rat [2]; 300.0 IU/kg (48.3 μg/kg) intravenous single, 0.25 hr): 11.05 ± 3.82 s | Hot Plate Latency (Mean ± SEM) (rat [2]; 300.0 IU/kg (48.3 μg/kg) intravenous single, 0.5 hr): 11.65 ± 2.31 s | Hot Plate Latency (Mean ± SEM) (rat [2]; 300.0 IU/kg (48.3 μg/kg) intravenous single, 1 hr): 12.65 ± 2.09 s | Hot Plate Latency (Mean ± SEM) (rat [2]; 300.0 IU/kg (48.3 μg/kg) intravenous single, 3 hr): 17.37 ± 4.25 s | Hot Plate Latency (Mean ± SEM) (rat [2]; 300.0 IU/kg (48.3 μg/kg) intravenous single, 6 hr): 11.55 ± 2.80 s | Hot Plate Latency (Mean ± SEM) (rat [2]; 300.0 IU/kg (48.3 μg/kg) intravenous single, 24 hr): 10.52 s | intravenous dose producing a hot plate latency similar to 1.6 IU/kg (0.25 μg/kg) intrathecal (rat [2]; at 0.5 hr): 10.0 IU/kg | increase in hot plate latencies (rat [2]; intravenous, 10-300 IU/kg): only small increases in hot plate latencies | time of peak effects (rat [2]; intravenous, 10 IU/kg): 30 min | dose response effect (rat [2]; intravenous, 10 to 300 IU/kg): No significant dose response effect was observed | time of peak effects (rat [2]; intravenous, 30-300 IU/kg): 180 to 360 min
